Legend:
[1] = Cytotoxicity against human HMC1 cells assessed as cell viability; type: cell-based
[2] = system: HMC1; test: Inhibition of A23187-induced IL-6 production in human HMC1 cells incubated for 30 mins prior to A23187 challenge measured after 24 hrs by ELISA; type: functional, cell-based

Row | IC50 [2] [µM] | Compound | IC50 [1] [µM]
1 | 1.62 | CC(C)=CCc1cc(C2CC(=O)c3ccc(O)c(CC=C(C)C)c3O2)c(O)cc1O (stereo not drawn) | > 20
2 | 4.02 | COc1ccc(-c2cc3ccc(O)cc3o2)c(O)c1 | > 20
3 | 0.73 | CC(C)=CCc1cc([C@@H]2CC(=O)c3ccc(O)c(CC=C(C)C)c3O2)ccc1O [GLABROL] | > 20
4 | 3.01 | Oc1ccc2c(c1)OC[C@H]1c3cc4c(cc3O[C@@H]21)OCO4 [MAACKIAIN] | > 20
